# Data from patent US20090286831A1, “VR1 Receptor Ligands and u-Opioid Receptor Ligands for the Treatment of Pain” (priority 2006, published 2009).
# Like-named read-outs stand apart in the source and are kept apart here. Marks after values point to notes of the source that are not given here.
# How the values were obtained:
# [1] = tested on: rats after spinal nerve ligature; experiment: Mono-neuropathic pain after spinal nerve ligature (Chung model), electronic von Frey; format: in vivo, rat
# Description: Sprague Dawley rats (140-160 g body weight) were used for the following animal models. Sprague Dawley rats (140-160 g body weight) from a commercial breeder (Janvier, Genest St. Isle, France) were used. The animals were kept under standard conditions: light-dark rhythm (06:00 to 18:00 h light, 18:00 to 06:00 h dark), room temperature 19-23° C., relative air humidity 45-65%, air exchange 19 times per hour, air movement <0.2 m/s, free choice of tap water and standard feed, Macrolon Type 4 cages with 5 animals per cage. The solutions of the test substances and/or vehicles (10% […], 5% Cremophor EL, 5% glucose) were administered intravenously.
# Under pentobarbital narcosis (Narcoren®, […] i.p., Merial GmbH, Hallbergmoos, Germany), the L5, L6 spinal nerves were firmly bound. The left L5 and L6 spinal nerves were exposed by removing a piece of paravertebral muscle and a portion of the left spinal process of the L5 lumbar vertebral body. The L5 and L6 spinal nerves were carefully isolated and bound with a firm ligature (NC silk, black, USP 5/0, metric 1, Braun Melsungen AG, Melsungen, Germany) (Kim and Chung, An experimental model for peripheral neuropathy produced by segmental spinal nerve ligature in the rat, Pain, 50, 1992, 355-363). After haemostasis was determined, the muscle and adjacent tissue were sutured and the wound closed by metal clamps. After a one-week recovery period the animals were placed in cages with a wire base closed to the top by a plastic hood for measurement of the mechanical allodynia. The animals were kept in this cage until their explorative behaviour had decreased.
# The threshold for the tactile allodynia was measured by means of an electronic von Frey anaesthesiometer (Somedic AB, Malmö, Sweden). The animals were randomly divided into groups of 10 animals. Each group received an individual dose of test substance or vehicle and the measurements were conducted 0.5 h before application and at various times after intravenous administration. Both the ipsi- and the contra-lateral rear paw were tested. The median of five stimulations gave a measured data point. The data were determined as % maximum possible effect (% MPE) from the pre-tests of the Chung individual animals (=0% MPE) and the test values of an independent sham control group (=100% MPE). The effect of the test substance and the vehicle was calculated for each measurement time (i.e. 0.5, 1 and 3 h after application) as inter-individual % MPE value. […] The corresponding threshold values are given in gram (mean±SEM).
# [2] = biological target: T1, human recombinant μ-opioid receptor (Homo sapiens, UniProt P35372); experiment: Ki value at the μ-opioid receptor (Experiment 4); format: binding
# T1 construct: expressed in transfected cells; host or cells: CHO-K1 cells (membrane preparation)
# [3] = biological target: T2, vanilloid receptor 1 (VR1/TRPV1) (Homo sapiens, UniProt Q8NER1); experiment: FLIPR capsaicin assay; format: cell-based, human or rat
# T2 construct: expressed in transfected cells; host or cells: CHO K1 cells (ECACC), stably transfected
# Source text: (§1) The agonist or antagonist effect of substances can be determined at the vanilloid receptor 1 (VR1/TRPV1) of the human and rat species with the assay described below. Accordingly, the Ca^2+ influx through the channel is quantified by means of a Ca^2+-sensitive dye (Fluo-4, Molecular Probes Europe BV, Leiden, The Netherlands) in the fluorescent imaging plate reader (FLIPR, Molecular Devices, Sunnyvale, USA).
# (§2) Chinese hamster ovary cells (CHO K1 cells, ECACC, England) are stably transfected with human or rat VR1 cDNA. For functional studies these cells are plated onto poly-D-lysine-coated black 96-hole plates with a clear base (BD Biosciences, Heidelberg, Germany) in a density of 25 000 cells/cavity. The cells are incubated overnight at 37° C. with 5% CO2 in culture medium (nutrient mixture Ham's F12, Gibco Invitrogen GmbH, Karlsruhe, Germany) with 10% vol. FBS (foetal bovine serum, Gibco Invitrogen GmbH, Karlsruhe, Germany) and 18 μg/ml of L-proline (Gibco Invitrogen GmbH, Karlsruhe, Germany). On the following day, the cells are laden with 2 μM Fluo-4 and 0.01% vol. Pluronic F127 (Molecular Probes Europe BV, Leiden, The Netherlands) in HBSS buffer (Hank's buffered saline solution, Gibco Invitrogen GmbH, Karlsruhe, Germany) for 30 min at 37° C. The plates are then washed 3 times in HBSS buffer and after further incubation for 15 minutes at room temperature are placed in the FLIPR for the Ca^2+ measurement. In this case, the Ca^2+-dependent fluorescence is measured before and after the addition of substances (λex=488 nm, λem=540 nm). Quantification occurs as a result of the measurement of the highest fluorescence intensity (FC, fluorescence counts) over time.
# The FLIPR protocol consists of 2 substance additions. Test substances (10 μM) are firstly pipetted onto the cells and the Ca^2+ influx is compared to the control (capsaicin 10 μM). This gives the specification in % activation in relation to the Ca^2+ signal after adding 10 μM of capsaicin. After 5 minutes incubation 100 nM of capsaicin are applied and the influx of Ca^2+ likewise determined. Desensitising agonists and antagonists lead to a suppression of the Ca^2+ influx. Inhibition values [%] are calculated in comparison to the maximum achievable inhibition with a saturating concentration of […] or another reference antagonist. The test substance is added in different concentrations to determine the IC50 and functional Ki value ((f)Ki). Triple determinations (n=3) are conducted and these are repeated in at least one further independent experiment (N>=2). A capsaicin dose action curve is generated to incorporate the thus determined EC50 values into the associated (f)Ki determination. EC50/IC50 values are calculated using ‘Prism4’ software from GraphPad Software™ or with XLfit4™ (ID Business Solutions Ltd.). (f)Ki values are calculated in accordance with the modified Cheng-Prusoff equation (Cheng, Prusoff; Biochem. Pharmacol. 22, 3099-3108, 1973). Testing for non-specific inhibition of the fluorescence as a result of the substances is conducted by activating wild type CHO K1 cells incubated with the same test substances with ATP (10 μM final concentration).
# human VR1 = biological target: T3, human VR1 (Homo sapiens, UniProt Q8NER1); experiment: FLIPR pH assay; format: cell-based
# T3 construct: expressed in transfected cells; host or cells: CHO K1 cells (ECACC), stably transfected
# Source text: as §1, §2
# In the pH assay, HBSS that now contains 60 mM MES instead of capsaicin is applied to human VR1-transfected CHO K1 cells (adjusted pH value of the addition solution is 4.95). Percentage inhibition and IC50 values are raised and evaluated as already described for the capsaicin test.
# rats = experiment: Tail-flick (hot beam) test in rats; format: in vivo, rat; conditions: dosage 1 mg/kg p.o.
# [4] = AMG 517 2.5 mg/kg i.v. group, Control (pre-test 0.5 h before application)
# [5] = AMG 517 2.5 mg/kg i.v., 180 min
# [6] = Oxycodone 2.5 mg/kg i.v. group, Control (pre-test 0.5 h before application)
# [7] = Oxycodone 2.5 mg/kg i.v., 30 min
# [8] = Oxycodone 2.5 mg/kg i.v., 60 min
# [9] = Oxycodone 2.5 mg/kg i.v., 180 min
# [10] = Oxycodone 5 mg/kg i.v. group, Control (pre-test 0.5 h before application)
# [11] = Oxycodone 5 mg/kg i.v., 180 min
# [12] = functional Ki, capsaicin 100 nM, VR1-transfected CHO K1 cells, modified Cheng-Prusoff, read-out: f(Ki) (VR1)
# [13] = human VR1-transfected CHO K1 cells, 60 mM MES, pH 4.95, read-out: IC50 (pH)
# [14] = read-out: % inhibition (pH assay)
# T3 sequence (Q8NER1 whole entry): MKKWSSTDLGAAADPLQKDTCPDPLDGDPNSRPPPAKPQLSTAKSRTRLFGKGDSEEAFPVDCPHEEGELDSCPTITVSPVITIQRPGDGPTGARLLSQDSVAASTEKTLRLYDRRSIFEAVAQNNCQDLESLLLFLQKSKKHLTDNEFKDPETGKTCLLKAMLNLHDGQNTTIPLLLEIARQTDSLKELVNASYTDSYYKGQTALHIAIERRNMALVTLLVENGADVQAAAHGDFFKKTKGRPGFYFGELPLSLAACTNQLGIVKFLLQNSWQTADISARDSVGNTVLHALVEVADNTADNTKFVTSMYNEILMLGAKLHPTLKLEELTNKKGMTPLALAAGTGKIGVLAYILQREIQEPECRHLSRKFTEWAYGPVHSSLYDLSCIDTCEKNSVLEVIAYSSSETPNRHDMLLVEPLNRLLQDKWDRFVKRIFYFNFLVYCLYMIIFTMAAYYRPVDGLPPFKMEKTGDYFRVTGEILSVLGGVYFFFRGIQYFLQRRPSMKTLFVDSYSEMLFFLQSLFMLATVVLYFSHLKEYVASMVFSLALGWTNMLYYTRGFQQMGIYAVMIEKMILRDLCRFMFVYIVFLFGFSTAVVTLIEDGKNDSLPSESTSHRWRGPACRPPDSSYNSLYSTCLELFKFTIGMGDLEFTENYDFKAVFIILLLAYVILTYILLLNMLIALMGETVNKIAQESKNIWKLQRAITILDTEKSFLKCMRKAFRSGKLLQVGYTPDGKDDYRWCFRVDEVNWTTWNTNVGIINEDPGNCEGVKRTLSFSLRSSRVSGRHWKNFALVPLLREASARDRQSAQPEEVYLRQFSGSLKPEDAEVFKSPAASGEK
# T2 sequence (Q8NER1 whole entry): as above
# T1 sequence (P35372 whole entry): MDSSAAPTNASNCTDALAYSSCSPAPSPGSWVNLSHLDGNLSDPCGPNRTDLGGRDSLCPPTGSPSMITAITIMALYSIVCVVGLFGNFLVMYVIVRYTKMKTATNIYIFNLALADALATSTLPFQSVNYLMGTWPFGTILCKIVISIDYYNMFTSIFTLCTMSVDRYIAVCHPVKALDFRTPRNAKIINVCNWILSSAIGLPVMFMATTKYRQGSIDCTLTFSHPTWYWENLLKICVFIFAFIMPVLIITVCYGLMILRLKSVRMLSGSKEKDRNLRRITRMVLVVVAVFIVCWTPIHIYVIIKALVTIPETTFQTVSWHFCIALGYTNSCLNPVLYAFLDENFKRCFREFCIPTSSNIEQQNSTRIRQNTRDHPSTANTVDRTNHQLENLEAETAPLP
smiles,measurement,setting,value
CC(=O)Nc1nc2c(Oc3cc(-c4ccc(C(F)(F)F)cc4)ncn3)cccc2s1 [AMG 517],"pull-away threshold value, contra-lateral rear paw, mean",[1]; [4],49.9 gram
same,"pull-away threshold value, ipsi-lateral rear paw, mean",[1]; [4],20.6 gram
same,"pull-away threshold value, contra-lateral rear paw, mean","[1]; AMG 517 2.5 mg/kg i.v., 30 min",50.9 gram
same,"pull-away threshold value, ipsi-lateral rear paw, mean","[1]; AMG 517 2.5 mg/kg i.v., 30 min",29.2 gram
same,"pull-away threshold value, contra-lateral rear paw, mean","[1]; AMG 517 2.5 mg/kg i.v., 60 min",49.6 gram
same,"pull-away threshold value, ipsi-lateral rear paw, mean","[1]; AMG 517 2.5 mg/kg i.v., 60 min",21.1 gram
same,"pull-away threshold value, contra-lateral rear paw, mean",[1]; [5],51.7 gram
same,"pull-away threshold value, ipsi-lateral rear paw, mean",[1]; [5],20.7 gram
"COc1ccc2c3c1O[C@H]1C(=O)CC[C@@]4(O)[C@@H](C2)N(C)CC[C@]314 [Oxycodone, oxycodone]","pull-away threshold value, contra-lateral rear paw, mean",[1]; [6],54.0 gram
same,"pull-away threshold value, ipsi-lateral rear paw, mean",[1]; [6],21.0 gram
same,"pull-away threshold value, contra-lateral rear paw, mean",[1]; [7],67.8 gram
same,"pull-away threshold value, ipsi-lateral rear paw, mean",[1]; [7],38.2 gram
same,"pull-away threshold value, contra-lateral rear paw, mean",[1]; [8],53.1 gram
same,"pull-away threshold value, ipsi-lateral rear paw, mean",[1]; [8],28.0 gram
same,"pull-away threshold value, contra-lateral rear paw, mean",[1]; [9],52.5 gram
same,"pull-away threshold value, ipsi-lateral rear paw, mean",[1]; [9],21.9 gram
same,"pull-away threshold value, contra-lateral rear paw, mean",[1]; [10],52.6 gram
same,"pull-away threshold value, ipsi-lateral rear paw, mean",[1]; [10],22.8 gram
same,"pull-away threshold value, contra-lateral rear paw, mean","[1]; Oxycodone 5 mg/kg i.v., 30 min",70.0 gram
same,"pull-away threshold value, ipsi-lateral rear paw, mean","[1]; Oxycodone 5 mg/kg i.v., 30 min",41.9 gram
same,"pull-away threshold value, contra-lateral rear paw, mean","[1]; Oxycodone 5 mg/kg i.v., 60 min",56.4 gram
same,"pull-away threshold value, ipsi-lateral rear paw, mean","[1]; Oxycodone 5 mg/kg i.v., 60 min",32.1 gram
same,"pull-away threshold value, contra-lateral rear paw, mean",[1]; [11],51.4 gram
same,"pull-away threshold value, ipsi-lateral rear paw, mean",[1]; [11],22.0 gram
same,efficacy (conclusion),"[1]; combination of two threshold doses of the same opioid, pull away increased on ipsi- and contra-lateral paw",additive antinociceptive efficacy
"CC(C(=O)NCc1ccc(C(F)(F)F)nc1N1CCC(c2ccccc2)(N(C)C)CC1)c1ccc(NS(C)(=O)=O)c(F)c1 (centres unmarked) [[1], N-((2-(4-(dimethylamino)-4-phenylpiperidin-1-yl)-6-(trifluoromethyl)pyridin-3-yl)methyl)-2-(3-fluoro-4-(methylsulfonamido)phenyl)propanamide]",Ki,[2],0.046 µM
same,Ki,[3]; [12],0.0313 µM
same,IC50,human VR1,0.806 µM
same,Tail-Flick [% MPE],rats,50%^2) % MPE
"CC(C(=O)NCc1ccc(C(C)(C)C)nc1N1CCC(c2ccccc2)(N(C)C)CC1)c1ccc(NS(C)(=O)=O)c(F)c1 (centres unmarked) [[2], N-((6-tert-butyl-2-(4-(dimethylamino)-4-phenylpiperidin-1-yl)pyridin-3-yl)methyl)-2-(3-fluoro-4-(methylsulfonamido)phenyl)propanamide]",Ki,[2],0.35 µM
same,Ki,[3],0.0037 µM
same,IC50,human VR1; [13],0.368 µM
"CC(C(=O)NCc1ccc(C(F)(F)F)nc1N1CCC(c2cccs2)(N(C)C)CC1)c1ccc(NS(C)(=O)=O)c(F)c1 (centres unmarked) [[3], N-((2-(4-(dimethylamino)-4-(thiophen-2-yl)piperidin-1-yl)-6-(trifluoromethyl)pyridin-3-yl)methyl)-2-(3-fluoro-4-(methylsulfonamido)phenyl)propanamide]",Ki,[2],0.119 µM
same,Ki,[3],0.0109 µM
same,IC50,human VR1; [13],0.335 µM
"CC(C(=O)NCc1ccc(C(F)(F)F)nc1N1CCC(Cc2ccccc2)(N(C)C)CC1)c1ccc(NS(C)(=O)=O)c(F)c1 (centres unmarked) [[5], N-((2-(4-benzyl-4-(dimethylamino)piperidin-1-yl)-6-(trifluoromethyl)pyridin-3-yl)methyl)-2-(3-fluoro-4-(methylsulfonamido)phenyl)propanamide]",Ki,[2],0.715 µM
same,Ki,[3],0.0063 µM
same,IC50,human VR1; [13],0.111 µM
"CC(C(=O)NCc1ccc(C(C)(C)C)nc1N1CCC(Cc2ccccc2)(N(C)C)CC1)c1ccc(NS(C)(=O)=O)c(F)c1 (centres unmarked) [[6], N-((2-(4-benzyl-4-(dimethylamino)piperidin-1-yl)-6-tert-butylpyridin-3-yl)methyl)-2-(3-fluoro-4-(methylsulfonamido)phenyl)propanamide]",Ki,[2],3.13 µM
same,Ki,[3],0.0026 µM
same,IC50,human VR1; [13],1.36 µM
"Cc1cc(C(C)C(=O)NCc2ccc(C(F)(F)F)cc2N2CCC(Cc3ccccc3)(N(C)C)CC2)ccc1NS(C)(=O)=O (centres unmarked) [[8], N-(2-(4-benzyl-4-(dimethylamino)piperidin-1-yl)-4-(trifluoromethyl)benzyl)-2-(3-methyl-4-(methylsulfonamido)phenyl)propanamide]",Ki,[2],0.022 µM
same,Ki,[3]; [12],0.0025 µM
same,inhibition at 1 µM,human VR1; [14],19%
same,inhibition at 5 µM,human VR1; [14],36%
same,inhibition at 10 µM,human VR1; [14],58%
"CC(C(=O)NCc1ccc(C(F)(F)F)nc1N1CCC(Cc2cccc(F)c2)(N(C)C)CC1)c1ccc(NS(C)(=O)=O)c(F)c1 (centres unmarked) [[9], N-((2-(4-(dimethylamino)-4-(3-fluorobenzyl)piperidin-1-yl)-6-(trifluoromethyl)pyridin-3-yl)methyl)-2-(3-fluoro-4-(methylsulfonamido)phenyl)propanamide]",Ki,[2],2.08 µM
same,Ki,[3],0.0024 µM
same,IC50,human VR1; [13],0.145 µM
"Cc1cc(C(C)C(=O)NCc2ccc(C(F)(F)F)cc2N2CCC(Cc3cccc(F)c3)(N(C)C)CC2)ccc1NS(C)(=O)=O (centres unmarked) [[11], N-(2-(4-(dimethylamino)-4-(3-fluorobenzyl)piperidin-1-yl)-4-(trifluoromethyl)benzyl)-2-(3-methyl-4-(methylsulfonamido)phenyl)propanamide]",Ki,[2],0.05 µM
same,Ki,[3]; [12],0.0016 µM
same,inhibition at 5 µM,human VR1; [14],35%
same,inhibition at 10 µM,human VR1; [14],38%
